Laboratory results taken from patent publication US5304474A, “Hydrophobic peptide esters and amides” (Board of Regents, The University of Texas System, priority 1991, dated 1994).
Peptide text beside a SMILES is read from it.

How the values were obtained:
[1] = tested on: natural killer cells (NK); experiment: NK function: lysis of K562 target cells (51Cr release) after preincubation of lymphocytes with compound; settings: lymphocytes exposed 15 minutes at room temperature (FIG. 4, FIG. 5)
[2] = Generation of dipeptide methyl esters from amino acid methyl esters by MP or PMN (TLC); assay type: in vitro ADME, human; settings: equal concentrations of Leu-OMe, Val-OMe or Phe-OMe added
Experimental: MP or PMN (prepared as in Example 1) at a concentration of 25×10^6 per ml were suspended in PBS and incubated with 25 mM Leu-OMe for 20 minutes at 22~C. Cell suspensions were then centrifuged at 1000 g for 10 minutes and the supernatants harvested and freeze-dried at -70~C., 100 millitorr atmospheric pressure. In some experiments, Leu-OMe-treated MP or PMN were sonicated to increase the yield of the reaction product. Samples were then extracted with methanol for application to thin layer chromatography (TLC) plates ([…]×20 cm^2, Analtech, Newark, Del.). Following development with chloroform/methanol/acetic acid (19 1:12.5 by volume), 1 cm bands were eluted with methanol, dried under nitrogen, and resuspended in 1 ml PBS. Mass spectra were obtained with a Finnegan Model 4021 automated EI/CI, GC/MS system coupled to an Incos data system. […]
In order to determine whether MP or PMN could generate the relevant dipeptide methyl esters from these amino acid methyl esters, TLC analysis of the supernatants of MP and PMN incubated with these compounds was carried out. […] However, when equal concentrations of Leu-OMe, Val-OMe, or Phe-OMe were added to MP or PMN, the concentrations of Val-Val-OMe generated were 50 to 80% of those found for Leu-Leu-OMe, while Phe-Phe-OMe was detected at only 10-30% of the levels of Leu-Leu-OMe. […]

- concentration generated by MP or PMN, relative to Leu-Leu-OMe [2]: 10-30%
Structure (SMILES): COC(=O)[C@H](Cc1ccccc1)NC(=O)[C@@H](N)Cc1ccccc1 [Phe-Phe-OMe] (H-Phe-Phe-OMe)
- NK toxicity / effect on NK function, in words [1]: less NK toxic than either Leu-Phe-OMe or Phe-Leu-OMe
